# Laboratory results published in PubChem BioAssay (NCI).
#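 96-well plates; 48 h exposure; 5 concentrations. Endpoints by linear interpolation between flanking doses. Not reached: highest tested concentration assigned. GI50: concentration for 50% inhibition of growth. TGI: total growth inhibition.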
# Tested on: HOP-92 NSCLC
# Experiment: inhibition of tumour cell growth, NCI panel, 48 h
SMILES,TGI,GI50
CN(CC(=O)O)c1ncc2c(n1)-c1ccccc1SC2,> 100 µM,–
CC(=O)Nc1ccc(C(=O)NN2C(=O)CSC2c2ccc([N+](=O)[O-])cc2)cc1 (centres undefined),> 100 µM,–
CC(=O)c1ccc(NCc2cc(O)ccc2O)cc1,39.2 µM,–
CN(C(=O)C1=CCC2(CC1)OCCO2)c1ccccc1OS(=O)(=O)C(F)(F)F,> 100 µM,–
CC(C)(C)NC(NC(C)(C)C)=C(/C=C(/Cl)[N+](=O)[O-])[N+](=O)[O-],> 100 µM,–
O=C(Cc1ccc(/C=C/C(=O)c2ncc[nH]2)cc1)Nc1cc(F)c(F)c(F)c1,8 µM,3.53 µM

# Tested on: HS 578T breast
# Experiment: inhibition of tumour cell growth, NCI panel, 48 h
SMILES,TGI,GI50
CN(CC(=O)O)c1ncc2c(n1)-c1ccccc1SC2,> 100 µM,–
CC(=O)Nc1ccc(C(=O)NN2C(=O)CSC2c2ccc([N+](=O)[O-])cc2)cc1 (centres undefined),> 100 µM,–
CC(=O)c1ccc(NCc2cc(O)ccc2O)cc1,> 100 µM,–
CC(C)(C)NC(NC(C)(C)C)=C(/C=C(/Cl)[N+](=O)[O-])[N+](=O)[O-],> 100 µM,–
O=C(Cc1ccc(/C=C/C(=O)c2ncc[nH]2)cc1)Nc1cc(F)c(F)c(F)c1,> 25 µM,7.3 µM

# Tested on: HT29 colon
# Experiment: inhibition of tumour cell growth, NCI panel, 48 h
SMILES,TGI,GI50
CN(CC(=O)O)c1ncc2c(n1)-c1ccccc1SC2,> 100 µM,–
CC(=O)Nc1ccc(C(=O)NN2C(=O)CSC2c2ccc([N+](=O)[O-])cc2)cc1 (centres undefined),> 100 µM,–
CC(=O)c1ccc(NCc2cc(O)ccc2O)cc1,> 100 µM,–
CC(C)(C)NC(NC(C)(C)C)=C(/C=C(/Cl)[N+](=O)[O-])[N+](=O)[O-],> 100 µM,–
O=C(Cc1ccc(/C=C/C(=O)c2ncc[nH]2)cc1)Nc1cc(F)c(F)c(F)c1,4.17 µM,861 nM

# Tested on: IGROV1 ovarian
# Experiment: inhibition of tumour cell growth, NCI panel, 48 h
SMILES,TGI,GI50
CN(CC(=O)O)c1ncc2c(n1)-c1ccccc1SC2,> 100 µM,–
CC(=O)Nc1ccc(C(=O)NN2C(=O)CSC2c2ccc([N+](=O)[O-])cc2)cc1 (centres undefined),> 100 µM,–
CC(=O)c1ccc(NCc2cc(O)ccc2O)cc1,> 100 µM,–
CC(C)(C)NC(NC(C)(C)C)=C(/C=C(/Cl)[N+](=O)[O-])[N+](=O)[O-],> 100 µM,–
O=C(Cc1ccc(/C=C/C(=O)c2ncc[nH]2)cc1)Nc1cc(F)c(F)c(F)c1,9.68 µM,3.31 µM

# Tested on: K-562 leukemia
# Experiment: inhibition of tumour cell growth, NCI panel, 48 h
SMILES,TGI,GI50
CC(=O)Nc1ccc(C(=O)NN2C(=O)CSC2c2ccc([N+](=O)[O-])cc2)cc1 (centres undefined),> 100 µM,–
CC(=O)c1ccc(NCc2cc(O)ccc2O)cc1,> 100 µM,–
CN(C(=O)C1=CCC2(CC1)OCCO2)c1ccccc1OS(=O)(=O)C(F)(F)F,> 100 µM,–
CC(C)(C)NC(NC(C)(C)C)=C(/C=C(/Cl)[N+](=O)[O-])[N+](=O)[O-],> 100 µM,–
O=C(Cc1ccc(/C=C/C(=O)c2ncc[nH]2)cc1)Nc1cc(F)c(F)c(F)c1,> 25 µM,2310 nM

# Tested on: KM12 colon
# Experiment: inhibition of tumour cell growth, NCI panel, 48 h
SMILES,TGI,GI50
CN(CC(=O)O)c1ncc2c(n1)-c1ccccc1SC2,> 100 µM,–
CC(=O)Nc1ccc(C(=O)NN2C(=O)CSC2c2ccc([N+](=O)[O-])cc2)cc1 (centres undefined),> 100 µM,–
CC(=O)c1ccc(NCc2cc(O)ccc2O)cc1,34.2 µM,–
CN(C(=O)C1=CCC2(CC1)OCCO2)c1ccccc1OS(=O)(=O)C(F)(F)F,> 100 µM,–
CC(C)(C)NC(NC(C)(C)C)=C(/C=C(/Cl)[N+](=O)[O-])[N+](=O)[O-],> 100 µM,–
O=C(Cc1ccc(/C=C/C(=O)c2ncc[nH]2)cc1)Nc1cc(F)c(F)c(F)c1,6.85 µM,2810 nM

# Tested on: LOX IMVI melanoma
# Experiment: inhibition of tumour cell growth, NCI panel, 48 h
SMILES,TGI,GI50
CN(CC(=O)O)c1ncc2c(n1)-c1ccccc1SC2,> 100 µM,–
CC(=O)c1ccc(NCc2cc(O)ccc2O)cc1,74.3 µM,–
CN(C(=O)C1=CCC2(CC1)OCCO2)c1ccccc1OS(=O)(=O)C(F)(F)F,> 100 µM,–
CC(C)(C)NC(NC(C)(C)C)=C(/C=C(/Cl)[N+](=O)[O-])[N+](=O)[O-],> 100 µM,–
O=C(Cc1ccc(/C=C/C(=O)c2ncc[nH]2)cc1)Nc1cc(F)c(F)c(F)c1,4.81 µM,1560 nM

# Tested on: M14 melanoma
# Experiment: inhibition of tumour cell growth, NCI panel, 48 h
SMILES,TGI,GI50
CN(CC(=O)O)c1ncc2c(n1)-c1ccccc1SC2,> 100 µM,–
CC(=O)Nc1ccc(C(=O)NN2C(=O)CSC2c2ccc([N+](=O)[O-])cc2)cc1 (centres undefined),> 100 µM,–
CC(=O)c1ccc(NCc2cc(O)ccc2O)cc1,38.4 µM,–
CN(C(=O)C1=CCC2(CC1)OCCO2)c1ccccc1OS(=O)(=O)C(F)(F)F,> 100 µM,–
CC(C)(C)NC(NC(C)(C)C)=C(/C=C(/Cl)[N+](=O)[O-])[N+](=O)[O-],92.5 µM,–
O=C(Cc1ccc(/C=C/C(=O)c2ncc[nH]2)cc1)Nc1cc(F)c(F)c(F)c1,8.36 µM,4.06 µM

# Tested on: MALME-3M melanoma
# Experiment: inhibition of tumour cell growth, NCI panel, 48 h
SMILES,TGI,GI50
CN(CC(=O)O)c1ncc2c(n1)-c1ccccc1SC2,> 100 µM,–
CC(C)(C)NC(NC(C)(C)C)=C(/C=C(/Cl)[N+](=O)[O-])[N+](=O)[O-],24.4 µM,–
O=C(Cc1ccc(/C=C/C(=O)c2ncc[nH]2)cc1)Nc1cc(F)c(F)c(F)c1,12.2 µM,4.33 µM

# Tested on: MCF7 breast
# Experiment: inhibition of tumour cell growth, NCI panel, 48 h
SMILES,TGI,GI50
CN(CC(=O)O)c1ncc2c(n1)-c1ccccc1SC2,> 100 µM,–
CC(=O)Nc1ccc(C(=O)NN2C(=O)CSC2c2ccc([N+](=O)[O-])cc2)cc1 (centres undefined),> 100 µM,–
CC(=O)c1ccc(NCc2cc(O)ccc2O)cc1,> 100 µM,–
CN(C(=O)C1=CCC2(CC1)OCCO2)c1ccccc1OS(=O)(=O)C(F)(F)F,> 100 µM,–
CC(C)(C)NC(NC(C)(C)C)=C(/C=C(/Cl)[N+](=O)[O-])[N+](=O)[O-],> 100 µM,–
O=C(Cc1ccc(/C=C/C(=O)c2ncc[nH]2)cc1)Nc1cc(F)c(F)c(F)c1,7.76 µM,2380 nM

# Tested on: MDA-MB-231 breast
# Experiment: inhibition of tumour cell growth, NCI panel, 48 h
SMILES,TGI,GI50
CN(CC(=O)O)c1ncc2c(n1)-c1ccccc1SC2,> 100 µM,–
CC(=O)Nc1ccc(C(=O)NN2C(=O)CSC2c2ccc([N+](=O)[O-])cc2)cc1 (centres undefined),> 100 µM,–
CC(=O)c1ccc(NCc2cc(O)ccc2O)cc1,73.8 µM,–
CN(C(=O)C1=CCC2(CC1)OCCO2)c1ccccc1OS(=O)(=O)C(F)(F)F,> 100 µM,–
CC(C)(C)NC(NC(C)(C)C)=C(/C=C(/Cl)[N+](=O)[O-])[N+](=O)[O-],> 100 µM,–
O=C(Cc1ccc(/C=C/C(=O)c2ncc[nH]2)cc1)Nc1cc(F)c(F)c(F)c1,21.1 µM,6.45 µM

# Tested on: MDA-MB-435
# Experiment: inhibition of tumour cell growth, NCI panel, 48 h
SMILES,TGI,GI50
CN(CC(=O)O)c1ncc2c(n1)-c1ccccc1SC2,> 100 µM,–
CC(=O)Nc1ccc(C(=O)NN2C(=O)CSC2c2ccc([N+](=O)[O-])cc2)cc1 (centres undefined),> 100 µM,–
CC(=O)c1ccc(NCc2cc(O)ccc2O)cc1,58.6 µM,–
CN(C(=O)C1=CCC2(CC1)OCCO2)c1ccccc1OS(=O)(=O)C(F)(F)F,> 100 µM,–
CC(C)(C)NC(NC(C)(C)C)=C(/C=C(/Cl)[N+](=O)[O-])[N+](=O)[O-],38.3 µM,–
O=C(Cc1ccc(/C=C/C(=O)c2ncc[nH]2)cc1)Nc1cc(F)c(F)c(F)c1,12.8 µM,4.25 µM

# Tested on: MDA-N
# Experiment: inhibition of tumour cell growth, NCI panel, 48 h
row,SMILES,TGI
1,CN(CC(=O)O)c1ncc2c(n1)-c1ccccc1SC2,> 100 µM
2,CC(=O)Nc1ccc(C(=O)NN2C(=O)CSC2c2ccc([N+](=O)[O-])cc2)cc1 (centres undefined),> 100 µM
3,CC(=O)c1ccc(NCc2cc(O)ccc2O)cc1,43.5 µM
4,CN(C(=O)C1=CCC2(CC1)OCCO2)c1ccccc1OS(=O)(=O)C(F)(F)F,> 100 µM
5,CC(C)(C)NC(NC(C)(C)C)=C(/C=C(/Cl)[N+](=O)[O-])[N+](=O)[O-],59.5 µM

# Tested on: MOLT-4 leukemia
# Experiment: inhibition of tumour cell growth, NCI panel, 48 h
SMILES,TGI,GI50
CN(CC(=O)O)c1ncc2c(n1)-c1ccccc1SC2,> 100 µM,–
CC(=O)Nc1ccc(C(=O)NN2C(=O)CSC2c2ccc([N+](=O)[O-])cc2)cc1 (centres undefined),> 100 µM,–
CC(=O)c1ccc(NCc2cc(O)ccc2O)cc1,> 100 µM,–
CN(C(=O)C1=CCC2(CC1)OCCO2)c1ccccc1OS(=O)(=O)C(F)(F)F,> 100 µM,–
CC(C)(C)NC(NC(C)(C)C)=C(/C=C(/Cl)[N+](=O)[O-])[N+](=O)[O-],> 100 µM,–
O=C(Cc1ccc(/C=C/C(=O)c2ncc[nH]2)cc1)Nc1cc(F)c(F)c(F)c1,16.1 µM,4.81 µM

# Tested on: NCI-H226 lung
# Experiment: inhibition of tumour cell growth, NCI panel, 48 h
SMILES,TGI,GI50
CC(=O)Nc1ccc(C(=O)NN2C(=O)CSC2c2ccc([N+](=O)[O-])cc2)cc1 (centres undefined),> 100 µM,–
CC(=O)c1ccc(NCc2cc(O)ccc2O)cc1,> 100 µM,–
CN(C(=O)C1=CCC2(CC1)OCCO2)c1ccccc1OS(=O)(=O)C(F)(F)F,85.4 µM,–
CC(C)(C)NC(NC(C)(C)C)=C(/C=C(/Cl)[N+](=O)[O-])[N+](=O)[O-],> 100 µM,–
O=C(Cc1ccc(/C=C/C(=O)c2ncc[nH]2)cc1)Nc1cc(F)c(F)c(F)c1,12.8 µM,4.83 µM
